Test results: US10919885B2, “Compounds and uses thereof” (Yumanity Therapeutics, Inc., priority 2018, dated 2021)
pIC50: −log10 of the molar value.

Experiments:
human SCD1 = human SCD1 (Homo sapiens (Human), UniProt O00767); assay: Yeast growth assay, strain expressing human SCD1 as the sole desaturase (reduced growth as surrogate for SCD inhibition); format: cell-based; settings: yeast with OLE1 deleted expressing human SCD1 from a plasmid; growth read as OD600 after 40 h at 30° C.; top drug concentration 33.3 μM
In short: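 Human SCD1 or SCD5 expressed from a plasmid in OLE1-deleted yeast as the sole desaturase. Cells washed free of Tween and fatty acids, grown with compound in SD-Ura glucose medium 40 h at 30 °C; growth measured as OD600, reduced growth taken as SCD inhibition.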

human SCD5 = human SCD5 (Homo sapiens (Human), UniProt Q86SK9); assay: Yeast growth assay, strain expressing human SCD5 as the sole desaturase (reduced growth as surrogate for SCD inhibition); format: cell-based; settings: yeast with OLE1 deleted expressing human SCD5 from a plasmid; growth read as OD600 after 40 h at 30° C.; top drug concentration 33.3 μM
Procedure: Strains expressing SCD1 or SCD5 as the sole desaturase, the human SCD1 and SCD5 genes were used to evaluate inhibition of SCD1/SCD5 using reduced growth as a surrogate for SCD inhibition. These yeast strains express human SCD1 or SCD5 from a plasmid harbored in a strain in which the yeast OLE1 gene is deleted.
All compound profiling experiments were performed using the same basic protocol. Yeast were cultured using standard techniques in complete synthetic media lacking uracil and containing yeast nitrogen base supplemented with 2% (w/v) glucose (SD-Ura) Starter cultures were inoculated in 3 mL SD-Ura media containing 0.01% tween and 0.2 mM palmitoleic and oleic acid. Cultures were incubated overnight in a 30° C. shaker incubator (225 rpm). Saturated morning cultures were centrifuged, washed in SD-Ura media lacking TWEEN-20 and fatty acids, and then diluted 1:20 in fresh SD-Ura media also lacking TWEEN-20 and fatty acids.
Compound administration was performed in two separate steps. First, 15 μL of SD-Ura was dispensed into clear 384-well assay plates using a MULTIDROP™ Combi reagent dispenser. […] The cultures described above were centrifuged and washed with media lacking TWEEN-20 or oleic and palmitoleic acids.
After yeast delivery, assay plates were incubated under humidified conditions at 30° C. for 40 h. Yeast growth was monitored by reading the OD600 of each well using a microplate reader (Perkin Elmer EnVision™).

Sequence of human SCD1 (O00767 whole entry): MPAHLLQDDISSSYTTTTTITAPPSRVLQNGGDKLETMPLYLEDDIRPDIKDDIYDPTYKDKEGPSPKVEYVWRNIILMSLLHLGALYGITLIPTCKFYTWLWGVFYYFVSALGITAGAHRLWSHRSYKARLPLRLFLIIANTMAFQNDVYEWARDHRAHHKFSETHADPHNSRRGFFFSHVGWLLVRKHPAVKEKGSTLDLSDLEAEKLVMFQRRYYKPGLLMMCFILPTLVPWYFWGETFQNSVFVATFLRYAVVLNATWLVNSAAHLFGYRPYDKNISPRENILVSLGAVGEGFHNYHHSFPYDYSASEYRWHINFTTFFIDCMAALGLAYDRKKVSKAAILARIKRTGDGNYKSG
Sequence of human SCD5 (Q86SK9 whole entry): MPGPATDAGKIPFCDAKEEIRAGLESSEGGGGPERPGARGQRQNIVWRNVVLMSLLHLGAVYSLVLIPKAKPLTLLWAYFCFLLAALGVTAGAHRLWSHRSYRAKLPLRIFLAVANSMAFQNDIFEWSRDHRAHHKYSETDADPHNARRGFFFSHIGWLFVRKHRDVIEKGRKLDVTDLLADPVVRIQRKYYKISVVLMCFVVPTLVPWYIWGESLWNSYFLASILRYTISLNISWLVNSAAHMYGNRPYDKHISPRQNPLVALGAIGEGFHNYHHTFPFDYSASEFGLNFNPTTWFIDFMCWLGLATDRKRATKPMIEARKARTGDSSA

pIC50 (human SCD1) | pIC50 (human SCD5) | SMILES
< 4.35 | < 4.35 | O=C(Nc1cnn(Cc2ccccc2)c1)c1cc(-c2cncs2)no1 [Compound 131]
5.59 | 5.94 | O=C(c1cc(-c2ccco2)on1)N1CC(c2ccccc2)C1 [Compound 207, [5-(2-furyl)isoxazol-3-yl]-(3-phenylazetidin-1-yl)methanone]
< 4.35 | < 4.35 | O=C(Nc1cnn(Cc2ccc(Cl)cc2)c1)c1cc(-c2ccco2)on1 [Compound 15]
6.18 | 5.14 | O=C(c1cc(-c2ccncc2)on1)N1CC(c2ccccc2)C1 [Compound 229, (3-phenylazetidin-1-yl)(5-(pyridin-4-yl)isoxazol-3-yl)methanone, trifluoroacetic acid]
< 4.35 | < 4.35 | CCOC(=O)c1cc(-c2cc(C(=O)Nc3cnn(Cc4cccc(F)c4)c3)no2)on1 [Compound 155]
< 4.35 | < 4.35 | O=C(c1cc(-c2ccccc2)on1)N1CC(Nc2ccccc2)C1 [Compound 214]
< 4.35 | < 4.35 | O=C(c1cc(-c2ccc3c(c2)OCO3)on1)N1CC(Oc2ccccc2)C1 [Compound 208]
< 4.35 | < 4.35 | O=C(Nc1cnn(Cc2ccccc2)c1)c1cc(-c2cccc3c2cnn3C2COC2)on1 [Compound 97]
< 4.35 | < 4.35 | CNC(=O)c1ccc(-c2cc(C(=O)N3CC=C(c4ccccc4)CC3)no2)cc1 [Compound 319]
< 4.35 | < 4.35 | O=C(c1cc(-c2ccccc2)on1)N1CCC(O)(c2ccccc2)CC1 [Compound 296]
< 4.35 | 5.19 | O=C(c1cc(-c2ccccc2)on1)N1CC2(C=C(c3ccccc3)C2)C1 [Compound 225, (6-phenyl-2-azaspiro[3.3]hept-6-en-2-yl)-(5-phenylisoxazol-3-yl)methanone]
5.09 | < 4.35 | O=C(Nc1cnn(Cc2cccc(F)c2)c1)c1cc(-c2nncs2)on1 [Compound 174]
6.64 | 6.20 | O=C(c1cc(-c2ccco2)on1)N1CC(Cc2ccccc2)C1 [Compound 205, (3-benzylazetidin-1-yl)-[5-(2-furyl)isoxazol-3-yl]methanone]
< 4.35 | < 4.35 | O=C(c1cc(-c2ccco2)on1)N(Cc1ccc(Cl)cc1)c1cnn(Cc2ccc(Cl)cc2)c1 [Compound 32]
< 4.35 | < 4.35 | O=C(c1cc(-c2ccc3c(c2)OCO3)on1)N1C[C@H](O)C[C@H]1c1ccccc1 [Compound 422]
4.65 | < 4.35 | O=C(Nc1cnn(Cc2cccc(F)c2)c1)c1cc(-c2ncccn2)on1 [Compound 46]
< 4.35 | < 4.35 | O=C(c1cc(-c2ccc3c(c2)OCO3)on1)N1CCCC1c1cnccn1 (centres unmarked) [Compound 418]
< 4.35 | < 4.35 | CCOC(=O)c1cc(C(=O)Nc2cnn(Cc3ccccc3)c2)on1 [Compound 151]
< 4.35 | < 4.35 | O=C(Nc1cnn(Cc2ccccc2Cl)c1)c1cc(-c2cccc3c2cnn3C2COC2)on1 [Compound 94]
5.58 | 5.51 | O=C(c1cc(-c2ccccn2)on1)N1CC(c2ccccc2)C1 [Compound 233, (3-phenylazetidin-1-yl)(5-(pyridin-2-yl)isoxazol-3-yl)methanone]
< 4.35 | < 4.35 | N#Cc1ccccc1C1CCCN1C(=O)c1cc(-c2ccc3c(c2)OCO3)on1 (centres unmarked) [Compound 398]
< 4.35 | < 4.35 | O=C(c1cc(-c2ccccc2)on1)N1CCN(c2ccccc2F)CC1 [Compound 284]
< 4.35 | < 4.35 | N#Cc1ccc(-c2cc(C(=O)Nc3cnn(Cc4cc(F)ccc4C(F)(F)F)c3)no2)nc1 [Compound 99]
7.15 | < 4.35 | O=C(Nc1cnn(Cc2cccc(F)c2)c1)c1cc(-c2ccccc2)on1 [Compound 53]
< 4.35 | 5.12 | O=C(c1noc2c1CCCC2)N1CC(c2ccccc2)C1 [Compound 252, 3-(3-phenylazetidine-1-carbonyl)-4,5,6,7-tetrahydro-1,2-benzoxazole]
< 4.35 | < 4.35 | O=C(Nc1cnnc(Oc2ccccc2)c1)c1cc(-c2ccccc2)on1 [Compound 311]
< 4.35 | < 4.35 | N#Cc1ccccc1-c1cc(C(=O)Nc2cnn(Cc3cccc(F)c3)c2)no1 [Compound 103]

pIC50 (human SCD1) | pIC50 (human SCD5) | SMILES
< 4.35 | < 4.35 | O=C(c1cc(-c2ccc3c(c2)OCO3)on1)N1CCN(c2cccc(F)c2)CC1 [Compound 282]
4.82 | < 4.35 | CNC(=O)c1cc(C(=O)Nc2cnn(Cc3cccc(F)c3)c2)no1 [Compound 87]
< 4.35 | < 4.35 | CC1(c2cc(C(=O)Nc3cnn(Cc4cccc(F)c4)c3)no2)COC1 [Compound 116]
5.48 | 5.81 | COc1ccc(-c2cc(C(=O)N3CC(c4cccc(F)c4)C3)no2)cc1OC [Compound 236]
< 4.35 | < 4.35 | O=C(Nc1cnn(-c2ccccc2)c1)c1cc(-c2ccco2)on1 [Compound 33]
< 4.35 | < 4.35 | O=C(Nc1cnn(Cc2cccnc2)c1)c1cc(-c2ccccc2)on1 [Compound 39]
< 4.35 | < 4.35 | O=C(Nc1cnn(Cc2ccccc2)c1)c1cc(-c2ccc(F)cc2F)on1 [Compound 157]
5.92 | 5.74 | O=C(Nc1cnn(Cc2cccc(F)c2)c1)c1cc(-c2ncccc2F)on1 [Compound 108, N-(1-(3-fluorobenzyl)-1H-pyrazol-4-yl)-5-(3-fluoropyridin-2-yl)isoxazole-3-carboxamide]
< 4.35 | < 4.35 | O=C(c1cc(-c2ccc3c(c2)OCO3)on1)N1CCc2ccccc2C1 [Compound 260]
< 4.35 | < 4.35 | Cc1cc(C2CCCN2C(=O)c2cc(-c3ccco3)on2)on1 (centres unmarked) [Compound 357]
4.59 | < 4.35 | O=C(Nc1cnn(CC2CCOC2)c1)c1cc(-c2ccccc2)on1 (centres unmarked) [Compound 50]
< 4.35 | < 4.35 | O=C(c1cc(-c2ccco2)on1)N1CC2(COC2)C1 [Compound 247]
< 4.35 | 5.53 | CC1(c2ccccc2)CCN(C(=O)c2cc(-c3ccc4c(c3)OCO4)on2)CC1 [Compound 290, 1-[5-(2H-1,3-benzodioxol-5-yl)-1,2-oxazole-3-carbonyl]-4-methyl-4-phenylpiperidine]
4.48 | 4.41 | Cc1nn(Cc2ccccc2)c(C)c1NC(=O)c1cc(-c2ccco2)on1 [Compound 2]
< 4.35 | < 4.35 | O=C(Nc1ccccc1)C1CN(C(=O)c2cc(-c3ccccc3)on2)C1 [Compound 237]
< 4.35 | < 4.35 | O=C(c1cc(-c2ccc3c(c2)OCO3)on1)N1CCCC1c1cccnc1 (centres unmarked) [Compound 362]
4.59 | < 4.35 | O=C(Nc1cnn(Cc2ccc(F)c(F)c2)c1)c1cc(-c2ccccn2)on1 [Compound 61]
< 4.35 | < 4.35 | COc1ccc(C2CCCN2C(=O)c2cc(-c3ccccc3)on2)cc1 (centres unmarked) [Compound 377]
< 4.35 | < 4.35 | CC(C)c1cc(C(=O)N2CCC(c3ccccc3)C2)no1 (centres unmarked) [Compound 349]
< 4.35 | 4.80 | CN(Cc1cccc(F)c1)C(=O)c1cc(-c2ccccc2)on1 [Compound 9]
< 4.35 | < 4.35 | CSCC(c1ccccc1)n1cc(NC(=O)c2cc(-c3ccccc3)on2)cn1 (centres unmarked) [Compound 73]
< 4.35 | < 4.35 | Cn1ncc2cccc(C3CCCN3C(=O)c3cc(-c4ccc5c(c4)OCO5)on3)c21 (centres unmarked) [Compound 425]
< 4.35 | < 4.35 | O=C(Nc1cnn(Cc2cccnc2C(F)(F)F)c1)c1cc(-c2ccccc2F)on1 [Compound 177]
< 4.35 | < 4.35 | O=C(Nc1cnn(Cc2cccc(F)c2)c1)c1cc(-c2ccno2)on1 [Compound 168]
4.49 | < 4.35 | O=C(c1cc(-c2ccc3ncnn3c2)on1)N1CCC[C@H]1c1ccccc1 [Compound 441]
6.58 | 6.52 | COc1ccc(-c2cc(C(=O)N3CC(c4ccccc4)C3)no2)nc1 [Compound 242, (5-(5-methoxypyridin-2-yl)isoxazol-3-yl)(3-phenylazetidin-1-yl)methanone]

SMILES | pIC50 (human SCD1) | pIC50 (human SCD5)
O=C(Nc1cnn(Cc2cccc(F)c2)c1)c1cc(-c2ccns2)on1 [Compound 81, N-(1-(3-fluorobenzyl)-1H-pyrazol-4-yl)-5-(isothiazol-5-yl)isoxazole-3-carboxamide] | 6.63 | 5.80
O=C(c1cc(-c2ccccc2)on1)N1CC2(CNC2)C1 [Compound 345] | < 4.35 | < 4.35
